Values joined by “and” are separate entries in the source; they are usually repeats but may differ in a detail not shown here. Equal entries are not always repeated. Where two headings read alike, the source gives them in different places.
Columns and labels:
[1] = system: cardiomyocytes derived from hiPSCs from a LQTS3 patient; assay: cells; conditions: Homo sapiens, Cardiomyocyte; for IC50: read-out: LQT-IC50 (uM)-Shortening
[2] = system: normal human induced pluripotent stem cell (hiPSC) cardiomyocyte; assay: cells; conditions: read-out: WT-EC50 (μM) Prolongation
[3] = system: normal human induced pluripotent stem cell (hiPSC) cardiomyocyte; conditions: for WT-Prolong. Dose: 'No AP' wraps to 'No AP Prolong.'; for WT-Fold Prolongation: APD; for WT-Cess. Dose / WT-EC50 (μM)-Prolong.: deuterated vs non-deuterated; for WT-EC50 (μM)-Prolong.: 'No AP' wraps to 'No AP prolongation'; for WT-Cessation Dose (μM): WT cardiomyocytes, cessation of beating
[4] = molecular target: hERG potassium channel (IKr) (Homo sapiens, UniProt Q12809); assay: Automated patch clamp, hERG (IKr) expressed in CHO cells; conditions: for IC50: hERG (IKr) IC50, CHO cells
[5] = system: cardiomyocytes derived from hiPSCs from a LQTS3 patient; conditions: for LQT-Cess. Dose: deuterated vs non-deuterated; for LQT-3 shortening (in words): LQT-3 cells; for LQT-EC50 (μM) Shortening: AP shortening
[6] = molecular target: Nav1.5 sodium channel, peak current (INaP) (Homo sapiens, UniProt Q14524, form not given); assay: Patch clamp electrophysiology, peak (INaP) and late (INaL) sodium current in transfected cells
Experimental: (§1) This provided data to investigate the physiology and action of target compounds on individual ion channels. The assay used standardized protocols for culturing and conducting conventional whole cell recording that have been previously developed for both current and voltage-clamp to characterize action potentials using transfected cells. Briefly, the Nav1.5 sodium channel was transfected into HEK293 cells. […] Briefly, cells were plated on 0.1% gelatin-coated 35-mm plastic Petri dishes. […] Data was reported as IC50 values±STD (Table 1).

[7] = molecular target: Nav1.5 sodium channel transfected into HEK293 cells (Homo sapiens, UniProt Q14524); assay: as above
Experimental: as §1

[8] = molecular target: Na+ channel currents in LQT3 patient-derived cardiomyocytes (Homo sapiens, UniProt Q14524); assay: Whole cell patch clamp of Na+ currents (INaP, INaL) in hIPSC LQT3 patient-derived cardiomyocytes; type: cell-based
Experimental: Patch clamp recordings from hIPSC LQT3 patient-derived cardiomyocytes for Na+ channel currents were recorded in response to computed voltage waveforms that simulated adult ventricular action potentials.
The basis for LQT3 is a mutation in SCN5a that encodes the voltage-gated Na channel responsible for cardiac action potential. The Na current (INa) has peak and late components: the peak component initiates the action potential but as voltage rises, the channel normally inactivates. […] The LQT3 mutation impairs inactivation. The late component is then enlarged, resulting in action potential prolongation. […] Whole cell patch clamp electrophysiology experiments in LQTS3 cardiomyocytes helped determine the functional activity of drug candidates for inhibition of the late sodium current in the cells. Thus, we tested compounds for Peak (INaP) and Late (INaL) components. They were recorded in a “whole-cell” voltage-clamp mode configuration in response to voltage stimulation steps from −80 mV to +40 mV and their IC50 values determined (Table 1).

Male BALBc mice = conditions: mouse, in vivo, ip, 200 mg/kg
Text: Male BALBc mice (20-22 g) were used throughout these studies. The animals were maintained in a temperature-controlled room with 12-hr periods of light and darkness and had continuous access to water and animal food. […] Groups contained 2-4 animals.

[9] = Solubility (water; 10:30:60% DMSO:PEG400:water vehicle); type: physicochemical
[10] = Chemical stability in PBS buffer at pH 7.4 or 3.0, 37° C.; type: physicochemical; conditions: pH 7.4, 100 μM in PBS, 1% Ethanol, read-out: Half-Life @ pH 7.4 and 37° C.
Experimental: A typical incubation contained 100 μM of the test compound prepared in PBS buffer (pH 7.4 or 3.0, 50 mM) with 1% Ethanol. The test compounds were incubated at 37° C. An aliquot from incubations was taken at various times and injected onto an RP-HPLC system as described above. Disappearance of the analyte was monitored over time.

[11] = Metabolic stability in human liver microsomes; type: in vitro ADME; conditions: for half-life at 50 μM: human, liver microsomes, pH 7.4, liver microsomes + NADPH, species (human), read-out: metabolic stability in liver microsomes T1/2
Experimental: (§2) A typical incubation contained rat, mouse, dog or human liver microsomes (0.4-0.5 mg of protein), 100 mM potassium phosphate buffer (pH7.4), 50 μM test compound, an NADPH-generating system consisting of 0.5 mM NADP^+, 0.5 mM glucose-6-phosphate, 1 IU/mL glucose-6-phosphate dehydrogenase, 1 mg/mL diethylenetriaminepentaaceticacid (DETAPAC), and 3 mM MgCl2 in a final incubation volume of 0.25 mL. […] After centrifugation at 3000 rpm for 5 min, the organic fraction was collected, the solvent was removed with a stream of argon and the residue was reconstituted in 125 μL of MeOH and 125 μL H2O, mixed thoroughly, centrifuged at 13,000 rpm for 5 min and analyzed by high performance liquid chromatography. Samples were run on a Hitachi D-7000 HPLC system using a L-7100 analytical pump, L-7400 UV-Visible variable wavelength detector, and L-7600 automatic sample injector. […] Disappearance of the analyte was monitored over time. A plot of the area under the curve for the normalized analyte versus time afforded the half-life values and kapp.

CYP2D6 = CYP2D6 (Homo sapiens, UniProt P10635); assay: Metabolism with highly purified CYP2D6 (HPLC); conditions: 50 min incubation
Experimental: as §2
Accordingly, we examined the metabolism of leads with highly purified CYPs with an HPLC method (Example 8).

[12] = Metabolism in human hepatic S9
Experimental: as §2
Microsomes contain CYPs and FMO metabolic enzymes. S9 contains soluble enzymes (i.e., aldehyde oxidase, MAO, etc.).

[13] = read-out: LQT-EC50 (μM)-Shortening
[14] = 'No AP' wraps to 'No AP shortening'
[15] = whole-cell voltage clamp, steps -80 mV to +40 mV, table title says transfected CHO cells, read-out: IC50 for INaL
[16] = whole-cell voltage clamp, steps -80 mV to +40 mV, table title says transfected CHO cells, read-out: IC50 for INaP
[17] = read-out: LQT-EC50 (μM) Shortening, LQT-3 cardiomyocytes, AP shortening

Sequence of hERG potassium channel (IKr) (Q12809 whole entry): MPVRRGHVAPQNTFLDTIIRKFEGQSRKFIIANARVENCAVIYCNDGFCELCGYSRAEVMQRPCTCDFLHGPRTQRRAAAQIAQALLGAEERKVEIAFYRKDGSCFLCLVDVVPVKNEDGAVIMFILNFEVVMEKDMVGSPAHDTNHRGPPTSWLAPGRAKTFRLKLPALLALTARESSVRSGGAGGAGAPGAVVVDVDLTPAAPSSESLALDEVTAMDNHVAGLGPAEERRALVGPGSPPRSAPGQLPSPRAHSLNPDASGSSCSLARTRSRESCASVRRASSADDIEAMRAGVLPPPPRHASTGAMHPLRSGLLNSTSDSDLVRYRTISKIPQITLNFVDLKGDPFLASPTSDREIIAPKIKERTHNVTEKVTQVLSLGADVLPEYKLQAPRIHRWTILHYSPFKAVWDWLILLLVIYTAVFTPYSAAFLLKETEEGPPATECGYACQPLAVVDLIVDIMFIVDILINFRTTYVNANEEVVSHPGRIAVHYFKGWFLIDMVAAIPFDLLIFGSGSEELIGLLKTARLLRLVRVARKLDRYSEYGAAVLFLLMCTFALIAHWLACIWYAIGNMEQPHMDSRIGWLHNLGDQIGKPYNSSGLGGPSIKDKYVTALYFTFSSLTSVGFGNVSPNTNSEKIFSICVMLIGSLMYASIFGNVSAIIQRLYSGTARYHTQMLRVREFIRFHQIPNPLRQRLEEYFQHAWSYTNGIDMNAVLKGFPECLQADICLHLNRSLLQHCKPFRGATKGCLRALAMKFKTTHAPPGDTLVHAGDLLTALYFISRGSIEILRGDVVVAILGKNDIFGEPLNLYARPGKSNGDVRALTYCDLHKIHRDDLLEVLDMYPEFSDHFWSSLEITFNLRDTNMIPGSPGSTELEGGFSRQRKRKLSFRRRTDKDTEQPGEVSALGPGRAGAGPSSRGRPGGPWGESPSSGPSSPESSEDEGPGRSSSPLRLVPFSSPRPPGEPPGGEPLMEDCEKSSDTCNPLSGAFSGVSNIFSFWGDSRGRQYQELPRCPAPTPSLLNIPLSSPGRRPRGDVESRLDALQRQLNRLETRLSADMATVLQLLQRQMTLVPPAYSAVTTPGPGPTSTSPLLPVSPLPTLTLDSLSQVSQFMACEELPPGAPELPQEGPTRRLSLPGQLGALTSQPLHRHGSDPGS
Sequence of CYP2D6 (P10635 whole entry): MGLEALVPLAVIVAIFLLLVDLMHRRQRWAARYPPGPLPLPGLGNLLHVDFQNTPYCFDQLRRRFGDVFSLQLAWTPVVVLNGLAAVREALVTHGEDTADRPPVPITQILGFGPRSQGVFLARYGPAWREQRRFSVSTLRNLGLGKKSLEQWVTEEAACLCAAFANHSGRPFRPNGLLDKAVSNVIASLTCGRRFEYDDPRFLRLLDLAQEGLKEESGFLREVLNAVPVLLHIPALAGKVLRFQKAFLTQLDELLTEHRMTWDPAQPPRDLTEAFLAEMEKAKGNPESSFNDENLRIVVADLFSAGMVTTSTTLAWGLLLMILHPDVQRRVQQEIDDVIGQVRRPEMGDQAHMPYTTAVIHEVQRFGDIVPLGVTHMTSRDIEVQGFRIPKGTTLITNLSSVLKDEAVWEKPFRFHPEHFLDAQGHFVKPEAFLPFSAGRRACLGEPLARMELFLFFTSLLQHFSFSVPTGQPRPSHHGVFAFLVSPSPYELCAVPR

SMILES: Cc1cccnc1OCC(N)c1ccccc1 (stereo not shown) [Compound 94, 2-((3-methylpyridin-2-yl)oxy)-1-phenylethan-1-amine]
- EC50 ([1]; read-out: LQT-EC50 (μM) Shortening, pyridyl derivatives): 12.8 µM
- EC50 [2]: 18.5 µM
- Cessation of Beating ([3]; normal hiPSC cardiomyocytes): None
- WT-EAD Dose ([3]; normal hiPSC cardiomyocytes): 133 µM
- WT-Cessation Dose ([3]; pyridyl derivatives): No cessation of beatimg

SMILES: Cc1cc(C)cc(OCC(N)c2ccccc2)c1.Cl (racemic) [Compound 70, (rac)-(+)-2-(3,5-dimethylphenoxy)-1-phenylethanamine hydrochloride]
- EC50 [1, 13]: < 0.8 µM
- IC50 [1]: 0.0013 µM
- IC50 [4]: 6.2 µM
- IC50 ([4]; Example 2): 6 µM and 6.2 µM
- DKr/NaL ([4]; ratio hERG IC50/late Na IC50): 34.0
- DNaP/Kr ([4]; ratio peak Na IC50/hERG IC50): 3.0
- DKr/NaL ([4]; ratio, Example 2): 34.0
- DNaP/Kr ([4]; ratio, Example 2): 3.0
- LQT-Fold Shortening [5, 14]: 1.279
- LQT-Shortening Dose [5, 14]: 7.4 µM
- LQT-Cessation Dose ([5]; LQT3 cardiomyocytes): 66 µM
- LQT-Fold Shortening ([5]; LQT3 cardiomyocytes): 1.279
- LQT-Cess. Dose [5]: 66 µM
- WT-Prolong. Dose [3]: No AP
- WT-Fold Prolongation ([3]; normal hiPSC cardiomyocytes): None
- WT-Cess. Dose [3]: 66 µM
- WT-EC50 (μM)-Prolong. [3]: No AP
- Cessation of Beating ([3]; normal hiPSC cardiomyocytes): 66 µM
- WT-Prolongation Dose ([3]; normal hiPSC cardiomyocytes): None
- IC50 [6]: 18.9 µM
- IC50 ([6]; Peak Na+ (INaP) IC50): 20.1 µM
- DNap/NaL ([7]; ratio peak IC50/late IC50): 103
- DNap/NaL ([7]; ratio peak/late IC50, Example 2, hydrochloride): 104 and 100.5
- Ratio Mex INaL/Lead INaL ([8]; potency relative to Mexiletine): 94.4
- IC50 [8, 15]: 0.54 µM
- IC50 [8, 16]: 171 µM
- behavioral/toxic effects at 200 mg/kg (Male BALBc mice): slight lethargy
- solubility (in words) [9]: good solubility
- half-life at 100 μM [10]: > 30 days
- metabolism in human liver microsomes judged by HPLC [11]: metabolized
- half-life at 50 μM [11]: > 0.0417 days
- nmols metabolized, CYP2D6 (CYP2D6): 4.6 nmols
- nmols/μg CYP, CYP2D6 (CYP2D6): .345 nmols/μg CYP
- pmols product/μg CYP/min, CYP2D6 (CYP2D6): 6.92 pmols product/μg CYP/min
- metabolism in human liver S-9 judged by HPLC [12]: detectably metabolized

SMILES: COCCNC(COc1cccnc1)c1ccccc1 (stereo not shown) [Compound 121]
- EC50 [1, 17]: 2.58 µM
- EC50 [2]: 25.4 µM
- LQT-Fold Shortening ([5]; LQT-3 cardiomyocytes): 1.144
- LQT-3 shortening (in words) [5]: moderate shortening
- WT-Cessation Dose (μM) [3]: No cessation of beating

SMILES: COCCNC(COc1cccc(C)c1C)c1ccccc1 (racemic) [Compound 36, 2-(2,3-dimethylphenoxy)-N-methoxy-ethyl-1-phenylethanamine]
- IC50 [1]: 5.73 µM
- IC50 [4]: 27.6 µM
- IC50 ([4]; Example 2): 27.6 µM
- DKr/NaL ([4]; ratio hERG IC50/late Na IC50): 36.9
- DNaP/Kr ([4]; ratio peak Na IC50/hERG IC50): 0.9
- DKr/NaL ([4]; ratio, Example 2): 36.9
- DNaP/Kr ([4]; ratio, Example 2): 0.93
- LQT-Cessation Dose ([5]; LQT3 cardiomyocytes): 200 µM
- LQT-Fold Shortening ([5]; LQT3 cardiomyocytes): 1.508
- Cessation of Beating ([3]; normal hiPSC cardiomyocytes): None
- IC50 ([6]; Peak Na+ (INaP) IC50): 25.8 µM
- IC50 [7]: 0.747 µM
- IC50 [8, 15]: 0.38 µM
- IC50 [8, 16]: 51.8 µM
- behavioral/toxic effects at 200 mg/kg (Male BALBc mice): slight lethargy
- solubility (in words) [9]: good solubility
- metabolism in human liver microsomes judged by HPLC [11]: metabolized
- metabolism in human liver S-9 judged by HPLC [12]: detectably metabolized

SMILES: Cc1ccccc1OCC(N)c1ccccc1 (stereo not shown) [Compound 25, 1-phenyl-2-(o-tolyloxy)ethanamine]
- IC50 ([8]; LQT3 patient-derived cardiomyocytes, read-out: NaI channel Late (INaL) IC50): 1.74 µM
- IC50 [8, 15]: 1.7 µM
- IC50 [8, 16]: 102 µM
- solubility (in words) [9]: good solubility
- half-life at 100 μM [10]: > 30 days
- half-life at 50 μM [11]: > 0.0417 days
- metabolism in human liver S-9 judged by HPLC [12]: detectably metabolized

SMILES: Cc1ccncc1OCC(N)c1ccccc1 (stereo not shown) [Compound 112]
- EC50 [2]: 19.4 µM
- LQT-Fold Shortening ([5]; LQT-3 cardiomyocytes): Does Not Shorten
- LQT-Shortening Dose (μM) ([5]; LQT-3 cardiomyocytes): Does Not Shorten
- LQT-EC50 (μM) Shortening ([5]; LQT-3 cardiomyocytes): Does Not Shorten
- WT-Cessation Dose (μM) [3]: No cessation of beating

SMILES: NC(COc1ccccc1C(F)(F)F)c1ccc2ccccc2c1 (stereo not shown) [Compound 134]
- EC50 [1, 17]: 1.79 µM
- EC50 [2]: 24.4 µM
- LQT-Fold Shortening ([5]; LQT-3 cardiomyocytes): 1.515
- LQT-Cessation Dose (μM) ([5]; LQT-3 cardiomyocytes, cessation of beating): No cessation of beating
- LQT-3 shortening (in words) [5]: highly potent
- cessation of beating (in words) ([5]; at the concentrations examined, cells not specified): did not induce cessation of beating
- prolongation effects in wild type cells ([3]; wild type cells): some prolongation effects

SMILES: Cc1ccnc(C)c1OCC(N)c1ccccc1 (stereo not shown) [Compound 118]
- EC50 [2]: 8.22 µM
- LQT-Fold Shortening ([5]; LQT-3 cardiomyocytes): Does Not Shorten
- LQT-Shortening Dose (μM) ([5]; LQT-3 cardiomyocytes): Does Not Shorten
- LQT-EC50 (μM) Shortening ([5]; LQT-3 cardiomyocytes): Does Not Shorten
- WT-Cessation Dose (μM) [3]: No cessation of beating

SMILES: Cl.NC(COc1cc(C(F)(F)F)cc(C(F)(F)F)c1)c1ccccc1 (stereo not shown) [Compound 78, 2-(3,5-bis(trifluoromethyl)phenoxy)-1-phenylethan-1-amine]
- EC50 [1, 13]: 23.1 µM
- IC50 [1]: 23.1 µM
- IC50 ([4]; Example 2): 7.2 µM
- DKr/NaL ([4]; ratio, Example 2): 7.0
- DNaP/Kr ([4]; ratio, Example 2): 2.77
- LQT-Fold Shortening [5, 14]: 1.208
- LQT-Shortening Dose [5, 14]: 22 µM
- LQT-Cessation Dose ([5]; LQT3 cardiomyocytes): 66 µM
- LQT-Fold Shortening ([5]; LQT3 cardiomyocytes): 1.208
- LQT-Cess. Dose [5]: 66 µM
- WT-Prolong. Dose [3]: No AP
- WT-Fold Prolongation ([3]; normal hiPSC cardiomyocytes): None
- WT-Cess. Dose [3]: 133 µM
- WT-EC50 (μM)-Prolong. [3]: No AP
- Cessation of Beating ([3]; normal hiPSC cardiomyocytes): 133 µM
- WT-Prolongation Dose ([3]; normal hiPSC cardiomyocytes): None
- IC50 ([6]; Peak Na+ (INaP) IC50): 20 µM
- DNap/NaL ([7]; ratio peak IC50/late IC50): 19.4
- DNap/NaL ([7]; ratio peak/late IC50, Example 2): 19.4
- solubility (in words) [9]: good solubility
- half-life at 100 μM [10]: > 30 days
- half-life at 50 μM [11]: > 0.0417 days

— patent publication US11492325B2, “Compounds as inhibitors of sodium channels” (Human BioMolecular Research Institute, priority 2016, dated 2022)
